The structures appear in SMILES notation. Counter-ions that a name gives are not always drawn. Like-named read-outs stand apart in the source and are kept apart here.

The values below come from patent US20040266802A1, “Tricyclic analgesics” (priority 1999, published 2004).

Data set [1] concerns Chronic Hyperalgesia Induced by PGE2 in Rats. The experiment in a line: Analgesic activity on chronic hyperalgesia induced by PGE2 in rats (Randall and Selitto test). It is filed as in vivo. The note with it: Rattus norvegicus, sc, 0.5 h; Sprague-Dawley rats, 10 mg/kg s.c., 30 min before measuring the pain threshold, compared with vehicle controls. The method, then: Analgesic Activity on Chronic Hyperalgesia Induced by PGE2 in Rats
The test consists in determining the analgesic effect of the test compound in rats by the Randall and Selitto test, in which chronic hyperalgesia has been triggered by intraplantar injection of PGE2 over 4 days into a leg, according to a protocol adapted from Nakamura-Craig et al (Pain, 63: 33-37. 1995).
The study is carried out on batches of 120-140 g Sprague-Dawley rats to which 100 ng of PGE2 is administered in a volume of 100 μl by the intraplantar route, for 4 consecutive days twice a day; this causes chronic hyperalgesia in the leg from the 5th day, for at least one week. On the day of the test, in the morning, the threshold of reaction to pain is checked by the Randall and Selitto test, and animals whose threshold is ψ100 arbitrarily defined units are selected. In the afternoon, the measurement is repeated after prior administration by the s.c. route of a solution of the test compound; this administration is carried out 30 min before measuring the pain threshold. For each batch, the analgesic activity (%) is calculated from the means of the thresholds measured before and after treatment, as compared with that of the control animals, who received only the vehicle.

The next data set concerns Na+ channels. The data set can be described thus: 22Na+ influx into SK-N-SH neuroblastoma cells under veratridine stimulation. The format is cell-based.
A further data set has as its target Na+ channel. The settings on record: rat cerebral cortex synaptosomes, 10 nM [3H]batrachotoxin, 90 min at 25° C.; read-out: [3H] BTX assay: Na+ channel binding Ki.
The mark [2] stands for this setting: human SK-N-SH cells, veratridine-induced influx, 10 min at 37° C.; read-out: 22Na influx IC50.

`O=C1c2ccccc2CCC12CCNCC2` (as salt: hydrochloride) yielded a melting point of 235 °C. On the same count and under the same terms, the result for `O=C1c2ccccc2CCC12CCN(CCc1ccccc1)CC2` (as salt: hydrochloride) reads > 275 °C; that for `O=C1c2ccccc2CCC12CCN(CC1CC1)CC2` (as salt: hydrochloride) [Example 2, 1′-cyclopropylmethyl-3,4-Dihydro-1-oxospiro[naphthalene-2(1H),4′-piperidine]], 243 °C; that for `O=C1c2ccccc2CCC12CCN(CC1CCC1)CC2` (as salt: hydrochloride) [Example 3, 1′-cyclobutylmethyl-3,4-Dihydro-1-oxospiro[naphthalene-2(1H),4′-piperidine]], 235 °C. Compound `O=C1c2ccccc2CCC12CCN(CC1CCCCC1)CC2` (as salt: hydrochloride) [Example 4, 1′-cyclohexylmethyl-3,4-Dihydro-1-oxospiro[naphthalene-2(1H),4′-piperidine]] had a melting point of 265 °C. On the same count and under the same terms, the result for `O=C1c2ccccc2CCC12CCN(CCC1CC1)CC2` (as salt: hydrochloride) [Example 6, 1′-cyclopropylethyl-3,4-Dihydro-1-oxospiro[naphthalene-2(1H),4′-piperidine]] reads 244 °C. Same read-out and setting: next, `O=C1c2ccccc2CCC12CCN(C/C=C/c1ccccc1)CC2` (as salt: hydrochloride) [Example 7, 1′-cinnamyl-3,4-Dihydro-1-oxospiro[naphthalene-2(1H),4′-piperidine]]: 228 °C; `O=C1c2ccccc2CCC12CCN(CCC(c1ccccc1)c1ccccc1)CC2` (as salt: hydrochloride) [Example 8, 1′-(3,3-diphenylpropyl)-3,4-Dihydro-1-oxospiro[naphthalene-2(11H),4′-piperidine]]: 257 °C. Same read-out and setting: the result for `Cc1cc(C)c2c(c1)C(=O)C1(CC2)CCN(CC2CC2)CC1` (as salt: hydrochloride) [Example 9, 1′-(cyclopropylmethyl)-3,4-Dihydro-5,7-dimethyl-1-oxospiro[naphthalene-2(1H),4′-piperidine]] reads > 260 °C; that for `COc1ccc2c(c1)CCC1(CCN(CC3CC3)CC1)C2=O` (as salt: hydrochloride) [Example 10, 1′-(cyclopropylmethyl)-3,4-Dihydro-6-methoxy-1-oxospiro[naphthalene-2(1H),4′-piperidine]], > 255 °C. In turn, `COc1cccc2c1CCC1(CCN(CC3CC3)CC1)C2=O` (as salt: hydrochloride) [Example 11, 1′-(cyclopropylmethyl)-3,4-Dihydro-5-methoxy-1-oxospiro[naphthalene-2(1H),4′-piperidine]] came in with a melting point of 244 °C. With `O=C1c2ccccc2CCC12CCN(CC1CC1)CC2` [Example 2, 1′-cyclopropylmethyl-3,4-Dihydro-1-oxospiro[naphthalene-2(1H),4′-piperidine]], the inhibition in vivo at 10 mg/kg in data set [1] stood at 49%. In the data set on Na+ channels (setting [2]), the IC50 came to 10700 nM. The like results for `O=C1c2ccccc2CCC12CCN(CCC1CC1)CC2` [Example 6, 1′-cyclopropylethyl-3,4-Dihydro-1-oxospiro[naphthalene-2(1H),4′-piperidine]] were, in that order, 67% and 3400 nM. The corresponding values for `O=C1c2ccccc2CCC12CCN(C/C=C/c1ccccc1)CC2` [Example 7, 1′-cinnamyl-3,4-Dihydro-1-oxospiro[naphthalene-2(1H),4′-piperidine]] are 57% and 940 nM. For the compound `O=C1c2ccccc2CCC12CCN(CCC(c1ccccc1)c1ccccc1)CC2` [Example 8, 1′-(3,3-diphenylpropyl)-3,4-Dihydro-1-oxospiro[naphthalene-2(11H),4′-piperidine]], in data set [1], the inhibition in vivo at 10 mg/kg came to 47%. Also, the concentration for half-maximal inhibition (IC50) in the data set with Na+ channels (setting [2]) was found to be 970 nM. The compound `COc1ccc2c(c1)CCC1(CCN(CC3CC3)CC1)C2=O` [Example 10, 1′-(cyclopropylmethyl)-3,4-Dihydro-6-methoxy-1-oxospiro[naphthalene-2(1H),4′-piperidine]] gave an inhibition in vivo at 10 mg/kg in data set [1] of 100%. In addition, the IC50 in the data set on Na+ channels (setting [2]) is 30000 nM. Turning to `O=C1c2ccccc2CCC12CCN(CCCc1ccccc1)CC2` [Example 33], the Ki at Na+ channel came out at 291 nM. At 10 mg/kg the inhibition in vivo in data set [1] was 81%. In addition, the IC50 in the data set with Na+ channels (read-out: 22Na influx IC50; human SK-N-SH cells, veratridine-induced influx, 10 min at 37° C.) was found to be 1200 nM.

Turning to `COc1cccc2c1CCC1(CCN(CC3CCC3)CC1)C2=O` [Example 36], the Ki at Na+ channel turned out to be 475 nM. The compound also registered an inhibition in vivo at 10 mg/kg in data set [1] of 51%. The IC50 in the data set with Na+ channels (setting [2]) stood at 3400 nM. `COc1ccc2c(c1)CCC1(CCN(CCC3CC3)CC1)C2=O` [Example 42] had an inhibition in vivo at 10 mg/kg in data set [1] of 46%. Besides, in the data set on Na+ channels (setting [2]), the 50% inhibitory concentration (IC50) amounted to 4300 nM. Turning to `COc1ccc2c(c1)CCC1(CCN(CC3CCC3)CC1)C2=O` [Example 43], testing at 10 mg/kg in data set [1] gave an inhibition in vivo of 39%. For the same compound, the IC50 in the data set on Na+ channels (setting [2]) is 6000 nM. The like results for `COc1ccc2c(c1)CCC1(CCN(CCCc3ccccc3)CC1)C2=O` [Example 47] were, in that order, 66% and 600 nM. With `COc1ccc2c(c1)C(=O)C1(CC2)CCN(CCC2CC2)CC1` [Example 49], the Ki at Na+ channel was 2180 nM. Also, in data set [1], testing at 10 mg/kg gave an inhibition in vivo of 38%. In the data set on Na+ channels (setting [2]), the IC50 came to 7600 nM. Turning to `COc1ccc2c(c1)CCC1(CCNCC1)C2=O` [Example 70, 3.4-Dihydro-6-methoxy-1-oxospiro[naphthalene-2(1H),4′-piperidine]], in data set [1], the inhibition in vivo at 10 mg/kg came out at 46%.
